From ChEMBL document CHEMBL5528017, “Design and synthesis of dual BRD4/Src inhibitors for treatment of triple-negative breast cancer” (Eur J Med Chem, 2024) come the findings set out here.

Activity calls are given as the source filed them. No cut-off for these calls is given here. Bounds are passed on as bounds.

Broadly, the IC50 is the concentration that inhibits the measured activity by half. In general, TGI refers to how far tumour growth fell short of that in controls.

For assay [1], the system named is MDA-MB-231. Kind of assay: cells. The following applies: Homo sapiens, MDA-MB-231, 72 h.
Description: Antiproliferative activity against human MDA-MB-231 cells assessed as inhibition of cell viability incubated for 72 hrs by CCK8 assay
In assay [2] the target is Bromodomain-containing protein 4 (Homo sapiens, UniProt O60885). The assay can be described thus: Inhibition of His6-tagged recombinant BRD4 BD1 domain (44 to 168 residues) (unknown origin) expressed in Escherichia coli BL21(DE3) incubated for 0.5 hrs by FITC-labeled JQ1 based competitive fluorescence polarization assay. (Fluorescence polarisation rises when a labelled molecule tumbles more slowly, as on binding a larger partner.)

Assay [3] has as its system MDA-MB-231. The assay can be described thus: Induction of cell cycle arrest in human MDA-MB-231 cells assessed as proportion of cells at G2 phase at 0.1 uM incubated for 24 hrs by propidium iodide staining based flow cytometry (reference value: 11.6%). Format: functional. For orientation: Flow cytometry measures light scatter and fluorescence of single cells or particles in a stream.

Assay [4] has as its system MDA-MB-231. The assay can be described thus: Inhibition of cell invasion in human MDA-MB-231 cells assessed as decrease in number of invading cells at 0.1 uM incubated for 16 hrs by matrigel coated transwell assay. Format: functional, cell-based.
For assay [5], the system named is MDA-MB-231. Kind of assay: Induction of apoptosis in human MDA-MB-231 cells assessed as proportion of viable cells at 0.5 uM incubated for 36 hrs by AnnexinV-FITC/PI staining based flow cytometry (reference value: 93.6%). Format: functional.
Assay [6] deals with MDA-MB-231. Kind of assay: Antitumor activity against human MDA-MB-231 cells xenografted in NOD-SCID mouse assessed as inhibition of tumor growth at 30 mg/kg, po administered 5 days per week for 27 days. Format: functional. The conditions noted are these: MDA-MB-231, 648 h, time 27 day, read-out: TGI.
Another assay has as its system MCF7. The assay can be described thus: Antiproliferative activity against human MCF7 cells assessed as inhibition of cell viability incubated for 3 to 4 days by CCK8 assay. Format: functional, cell-based. The following applies: time 3-4 day. For orientation: Formazan colour is commonly taken as a measure of viable cells.
Assay [7] has as its system MDA-MB-231. The assay can be described thus: Induction of cell cycle arrest in human MDA-MB-231 cells assessed as proportion of cells at G1 phase at 0.1 uM incubated for 24 hrs by propidium iodide staining based flow cytometry (reference value: 59.5%). Format: functional.
Assay [8] has as its system MDA-MB-231. Kind of assay: Induction of apoptosis in human MDA-MB-231 cells assessed as proportion of necrotic cells at 0.5 uM incubated for 36 hrs by AnnexinV-FITC/PI staining based flow cytometry (reference value: 0%). Format: functional.
In assay [9] the test system is MDA-MB-231. The assay can be described thus: Induction of cell cycle arrest in human MDA-MB-231 cells assessed as downregulation of cyclin B1 expression at 0.1 uM incubated for 24 hrs by western blot analysis. Format: functional, cell-based.
Assay [10] has as its system MDA-MB-231. Kind of assay: Induction of cell cycle arrest in human MDA-MB-231 cells assessed as decrease in cyclin D1 expression at 0.1 uM incubated for 24 hrs by western blot analysis. Format: functional, cell-based.
In a further assay the test system is A549. Kind of assay: Antiproliferative activity against human A549 cells assessed as inhibition of cell viability incubated for 3 to 4 days by CCK8 assay. Format: functional, cell-based. The conditions noted are these: time 3-4 day.
The subject of assay [11] is MDA-MB-231. Kind of assay: Induction of apoptosis in human MDA-MB-231 cells assessed as proportion of late apoptotic cells at 0.5 uM incubated for 36 hrs by AnnexinV-FITC/PI staining based flow cytometry (reference value: […]%). Format: functional.
Assay [12] deals with MDA-MB-231. Kind of assay: Induction of cell cycle arrest in human MDA-MB-231 cells assessed as increase in p21 expression at 0.1 uM incubated for 24 hrs by western blot analysis. Format: functional, cell-based.
Assay [13] concerns MDA-MB-231. Kind of assay: Induction of apoptosis in human MDA-MB-231 cells assessed as proportion of early apoptotic cells at 0.5 uM incubated for 36 hrs by AnnexinV-FITC/PI staining based flow cytometry (reference value: 5.05%). Format: functional.
The subject of assay [14] is MDA-MB-231. The assay can be described thus: Induction of cell cycle arrest in human MDA-MB-231 cells assessed as proportion of cells at S phase at 0.1 uM incubated for 24 hrs by propidium iodide staining based flow cytometry (reference value: 28.2%). Format: functional.
Assay [15] deals with MDA-MB-231. The assay can be described thus: Inhibition of cell migration in human MDA-MB-231 cells at 0.05 uM incubated for 12 hrs by wound healing assay. Format: functional, cell-based.
A further assay relates to CWR22R. Kind of assay: Antiproliferative activity against human 22Rv1 cells assessed as inhibition of cell viability incubated for 3 to 4 days by CCK8 assay. Format: functional, cell-based. The following applies: time 3-4 day.
In assay [16] the test system is MDA-MB-231. The assay can be described thus: Induction of cell cycle arrest in human MDA-MB-231 cells assessed as […] in cyclin D1 expression at 0.1 uM incubated for 24 hrs by western blot analysis. Format: functional, cell-based.
The test system of assay [17] is MDA-MB-231. Kind of assay: Antitumor activity against human MDA-MB-231 cells xenografted in NOD-SCID mouse assessed as inhibition of tumor growth at 30 mg/kg, ip administered 5 days per week for 27 days. The conditions noted are these: time 27 day. Format: functional.

Compound `CSCC[C@H](NC(=O)C[C@@H]1N=C(c2ccc(Cl)cc2)c2c(sc(C)c2C)-n2c(C)nnc21)C(=O)OCCN1CCN(c2cc(Nc3ncc(C(=O)Nc4c(C)cccc4Cl)s3)nc(C)n2)CC1` returned an IC50 in the assay with MDA-MB-231 [1] of 58 nM.

For the compound `Cc1nc(Nc2ncc(C(=O)Nc3c(C)cccc3Cl)s2)cc(N2CCN(C(=O)[C@@H]3CCCCN3C(=O)C[C@@H]3N=C(c4ccc(Cl)cc4)c4c(sc(C)c4C)-n4c(C)nnc43)CC2)n1`, the half-maximal inhibitory concentration (IC50) in the assay on MDA-MB-231 [1] is 5000 nM; in [2] it was more than 1000 nM.

With `Cc1nc(Nc2ncc(C(=O)Nc3c(C)cccc3Cl)s2)cc(N2CCN(CCOC(=O)[C@@H]3CCCCN3C(=O)C[C@@H]3N=C(c4ccc(Cl)cc4)c4c(sc(C)c4C)-n4c(C)nnc43)CC2)n1`, the IC50 is 240 nM in the assay with MDA-MB-231 [1] and more than 1000 nM in assay [2].

With `Cc1nc(Nc2ncc(C(=O)Nc3c(C)cccc3Cl)s2)cc(N2CCN(CCOC(=O)C(NC(=O)C[C@@H]3N=C(c4ccc(Cl)cc4)c4c(sc(C)c4C)-n4c(C)nnc43)C(C)C)CC2)n1` (some centres not stated), inhibition with MDA-MB-231 [1] was half-maximal at 172 nM (IC50).

As for `Cc1nc(Nc2ncc(C(=O)Nc3c(C)cccc3Cl)s2)cc(N2CCN(C(=O)C[C@@H]3N=Cc4c(sc(C)c4C)-n4c(C)nnc43)CC2)n1`, the IC50 with MDA-MB-231 [1] was determined as 980 nM.

Consider `Cc1nc(Nc2ncc(C(=O)Nc3c(C)cccc3Cl)s2)cc(N2CCN(CCOC(=O)[C@H](CC(C)C)NC(=O)C[C@@H]3N=C(c4ccc(Cl)cc4)c4c(sc(C)c4C)-n4c(C)nnc43)CC2)n1`, for which, in the assay on MDA-MB-231 [1], the IC50 came out at 240 nM.

Compound `Cc1nc(Nc2ncc(C(=O)Nc3c(C)cccc3Cl)s2)cc(N2CCN(CCOC(=O)[C@H](CC(=O)OC(C)(C)C)NC(=O)C[C@@H]3N=C(c4ccc(Cl)cc4)c4c(sc(C)c4C)-n4c(C)nnc43)CC2)n1` registered an IC50 with MDA-MB-231 [1] of 122 nM.

Compound `Cc1nc(Nc2ncc(C(=O)Nc3c(C)cccc3Cl)s2)cc(N2CCN(CCOC(=O)C[C@@H]3N=C(c4ccc(Cl)cc4)c4c(sc(C)c4C)-n4c(C)nnc43)CC2)n1` showed an IC50 with MDA-MB-231 [1] of 52 nM.

In the assay on MDA-MB-231 [1], `Cc1nc(Nc2ncc(C(=O)Nc3c(C)cccc3Cl)s2)cc(N2CCN(CCOC(=O)[C@H](Cc3ccccc3)NC(=O)C[C@@H]3N=C(c4ccc(Cl)cc4)c4c(sc(C)c4C)-n4c(C)nnc43)CC2)n1` gave an IC50 of 197 nM.

For `CC[C@H](C)[C@H](NC(=O)C[C@@H]1N=C(c2ccc(Cl)cc2)c2c(sc(C)c2C)-n2c(C)nnc21)C(=O)OCCN1CCN(c2cc(Nc3ncc(C(=O)Nc4c(C)cccc4Cl)s3)nc(C)n2)CC1`, the IC50 with MDA-MB-231 [1] was 340 nM; in assay [2], more than 1000 nM.

In the case of `Cc1nc(Nc2ncc(C(=O)Nc3c(C)cccc3Cl)s2)cc(N2CCN(CCOC(=O)[C@H](Cc3c[nH]c4ccccc34)NC(=O)C[C@@H]3N=C(c4ccc(Cl)cc4)c4c(sc(C)c4C)-n4c(C)nnc43)CC2)n1`, in the assay on MDA-MB-231 [1], the midpoint of inhibition, the IC50, lay at 95 nM.

In the assay on MDA-MB-231 [1], `Cc1nc(Nc2ncc(C(=O)Nc3c(C)cccc3Cl)s2)cc(N2CCN(CCOC(=O)CNC(=O)C[C@@H]3N=C(c4ccc(Cl)cc4)c4c(sc(C)c4C)-n4c(C)nnc43)CC2)n1` returned an IC50 of 22 nM.

With `Cc1nc(Nc2ncc(C(=O)Nc3c(C)cccc3Cl)s2)cc(N2CCN(CCO)CC2)n1` [DASATINIB ANHYDROUS], the Activity in the assay on MDA-MB-231 [3] stood at 7.75%; with MDA-MB-231 [5], 80.9%; in the assay on MDA-MB-231 [7], 74.5%; with MDA-MB-231 [8] it was 0.002%; in the assay on MDA-MB-231 [11], 4.45%; with MDA-MB-231 [13] it was 14.6%. In addition, in the assay on MDA-MB-231 [14], the Activity is 15.8%. Besides, the inhibition entry in the assay with MDA-MB-231 [4] and with MDA-MB-231 [15] was “Active” throughout. For the same compound, the inhibition in vivo at 30 mg/kg in the assay on MDA-MB-231 [6] was determined as 44.7%. For the same compound, the outcome in the assay with MCF7, with MDA-MB-231 [9], with MDA-MB-231 [10], with A549, in the assay with MDA-MB-231 [12] and with CWR22R was Active. This compound yielded an IC50 in the assay on MDA-MB-231 [1] of 157 nM.

As for `Cc1sc2c(c1C)C(c1ccc(Cl)cc1)=N[C@@H](CC(=O)OC(C)(C)C)c1nnc(C)n1-2`, the Activity in the assay on MDA-MB-231 [3] is given as 8.53%; in the assay on MDA-MB-231 [5], 83.8%; with MDA-MB-231 [7], 73.3%; in the assay with MDA-MB-231 [8], 0%; in the assay on MDA-MB-231 [11], 2.9%; with MDA-MB-231 [13], 13.3%. Besides, in the assay on MDA-MB-231 [14], the Activity amounted to 17.5%. For the same compound, the inhibition result in the assay on MDA-MB-231 [4] is “inactive”. Also, the IC50 in the assay with MDA-MB-231 [1] worked out at 896 nM. Also, the result in the assay with MDA-MB-231 [9], in the assay with MDA-MB-231 [16] and in the assay on MDA-MB-231 [12] was Active. Further, the TGI in the assay with MDA-MB-231 [17] is listed as 63.6%. Further, in the assay with MDA-MB-231 [15], the inhibition entry was “Active”.

For `Cc1nc(Nc2ncc(C(=O)Nc3c(C)cccc3Cl)s2)cc(N2CCN(C(=O)CCCNC(=O)C[C@@H]3N=C(c4ccc(Cl)cc4)c4c(sc(C)c4C)-n4c(C)nnc43)CC2)n1`, 1330 nM corresponded to half-maximal inhibition in the assay with MDA-MB-231 [1] (IC50).

In the assay on MDA-MB-231 [1], `Cc1nc(Nc2ncc(C(=O)Nc3c(C)cccc3Cl)s2)cc(N2CCN(C(=O)CCCCCCCNC(=O)C[C@@H]3N=C(c4ccc(Cl)cc4)c4c(sc(C)c4C)-n4c(C)nnc43)CC2)n1` displayed an IC50 of 757 nM.

The compound `Cc1nc(Nc2ncc(C(=O)Nc3c(C)cccc3Cl)s2)cc(N2CCN(C(=O)CCCCCNC(=O)C[C@@H]3N=C(c4ccc(Cl)cc4)c4c(sc(C)c4C)-n4c(C)nnc43)CC2)n1` returned an IC50 in the assay with MDA-MB-231 [1] of 300 nM.

As to `Cc1nc(Nc2ncc(C(=O)Nc3c(C)cccc3Cl)s2)cc(N2CCN(CCOC(=O)CCOCCOCCOCCNC(=O)C[C@@H]3N=C(c4ccc(Cl)cc4)c4c(sc(C)c4C)-n4c(C)nnc43)CC2)n1`, in the assay with MDA-MB-231 [1], half-maximal inhibition (IC50) was put at 167 nM.

In the assay with MDA-MB-231 [1], `Cc1nc(Nc2ncc(C(=O)Nc3c(C)cccc3Cl)s2)cc(N2CCN(CCOC(=O)[C@@H]3CCCN3C(=O)C[C@@H]3N=C(c4ccc(Cl)cc4)c4c(sc(C)c4C)-n4c(C)nnc43)CC2)n1` came in with an IC50 of 135 nM.

`Cc1nc(Nc2ncc(C(=O)Nc3c(C)cccc3Cl)s2)cc(N2CCN(CCOC(=O)CCCCCNC(=O)C[C@@H]3N=C(c4ccc(Cl)cc4)c4c(sc(C)c4C)-n4c(C)nnc43)CC2)n1` yielded an IC50 with MDA-MB-231 [1] of 1080 nM.
